Patent publication US7012099B2, “Use of substituted 4-amino-1-phenylbutan-2-ol compounds as medicaments” (Gruenenthal GmbH, priority 1999, dated 2006)
Structures can show the parent of a compound that is named as a salt.

Target: T1, ORL1 receptor (Homo sapiens, UniProt P41146)
T1 construct: expressed in transfected cells; host or cells: CHO (recombinant CHO-ORL1 cells), membranes
Test: ORL1 receptor binding assay using 3H-nociceptin/orphanin FQ with membranes of recombinant CHO-ORL1 cells
Conditions: 3H-nociceptin/orphanin FQ 0.5 nM, WGA-SPA beads, one hour at room temperature
Description: The 4-amino-1-phenylbutan-2-ol compounds of the general formula I have been studied in a receptor binding assay using ^3H-nociceptin/orphanin FQ with membranes of recombinant CHO-ORL1 cells. That test system was carried out according to the method put forward by Ardati et al. (Mol. Pharmacol., 51, 1997, p. 816–824). The concentration of ^3H-nociceptin/orphanin FQ in those tests was 0.5 nM. The binding assays were carried out using in each case 20 μg of membrane protein per 200 μl batch in 50 mM Hepes, pH 7.4, 10 mM MgCl2 and 1 mM EDTA. Binding to the ORL1 receptor was determined using in each case 1 mg of WGA-SPA beads (Amersham-Pharmacia, Freiburg) by incubation of the batch for one hour at room temperature and subsequent measurement in a Trilux scintillation counter (Wallac, Finland). The affinity is given as the Ki value.
For each of the compounds of Examples 1 to 7, the affinity for the ORL1 receptor was determined according to the mentioned molecular-pharmacological investigations.

T1 sequence (P41146 whole entry): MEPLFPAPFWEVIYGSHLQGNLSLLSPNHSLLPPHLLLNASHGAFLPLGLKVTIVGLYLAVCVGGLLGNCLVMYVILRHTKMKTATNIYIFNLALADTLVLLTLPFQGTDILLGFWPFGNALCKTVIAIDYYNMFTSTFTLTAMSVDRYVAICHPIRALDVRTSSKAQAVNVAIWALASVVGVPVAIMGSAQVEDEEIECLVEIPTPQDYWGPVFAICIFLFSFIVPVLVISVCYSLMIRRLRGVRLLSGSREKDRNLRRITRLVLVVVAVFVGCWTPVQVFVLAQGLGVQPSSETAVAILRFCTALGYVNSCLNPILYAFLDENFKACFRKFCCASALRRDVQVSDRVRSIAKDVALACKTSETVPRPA

SMILES	Ki [nM]
CN(C)C(c1ccccc1)C1CCCCC1(O)Cc1ccccc1Cl (stereo not shown) [Example 1, 1-(2-Chlorobenzyl)-2-(dimethylaminophenylmethyl)cyclohexanol hydrochloride]	6000
CN(C)C(c1ccccc1)C1CCCCC1(O)Cc1cccc(Cl)c1 (stereo not shown) [Example 2, 1-(3-chlorobenzyl)-2-(dimethylaminophenylmethyl)cyclohexanol hydrochloride]	2100
CN(C)C(c1ccccc1)C1CCCCC1(O)Cc1ccc(Cl)cc1 (stereo not shown) [Example 3, 1-(4-chlorobenzyl)-2-(dimethylaminophenylmethyl)-1-cyclohexanol hydrochloride]	1700
CN(C)C(c1ccccc1)C1CCCCC1(O)Cc1ccc(F)c(F)c1 (stereo not shown) [Example 4, 1-(3,4-difluorobenzyl)-2-(dimethylaminophenylmethyl)cyclohexanol hydrochloride]	1900
CN(C)C(c1ccccc1)C1CCCCC1(O)Cc1cccc(C(F)(F)F)c1 (stereo not shown) [Example 5, 2-(dimethylaminophenylmethyl)-1-(3-trifluoromethylbenzyl)cyclohexanol hydrochloride]	900
CN(C)C(c1cccs1)C1CCCCC1(O)Cc1cccc(C(F)(F)F)c1 (stereo not shown) [Example 6, 2-(dimethylaminothiophen-2-ylmethyl)-1-(3-trifluoromethylbenzyl)cyclohexanol Hydrochloride]	600
CN(C)C(c1ccsc1)C1CCCCC1(O)Cc1cccc(C(F)(F)F)c1 (stereo not shown) [Example 7, 2-(dimethylaminothiophen-3-ylmethyl)-1-(3-trifluoromethylbenzyl)cyclohexanol hydrochloride]	330
